Our source for the IC50 values is patent US10519152B2, “Compounds and their use in treating cancer” (AstraZeneca AB, priority 2017, dated 2019).

The target of this test is T1, recombinant human Estrogen Receptor alpha ligand binding domain, residues 307-554 (ER alpha-LBD (GST)) (Homo sapiens, UniProt P03372).
T1 construct: made in house
T1 sequence (P03372 307-554): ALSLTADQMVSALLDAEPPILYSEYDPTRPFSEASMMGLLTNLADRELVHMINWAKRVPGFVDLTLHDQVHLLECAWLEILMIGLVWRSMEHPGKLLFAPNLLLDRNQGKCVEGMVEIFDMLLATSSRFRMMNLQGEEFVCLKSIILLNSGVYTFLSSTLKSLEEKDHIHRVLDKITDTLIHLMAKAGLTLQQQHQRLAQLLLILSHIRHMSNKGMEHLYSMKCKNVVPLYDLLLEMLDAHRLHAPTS
Kind of test: ERα binding assay (LanthaScreen TR-FRET competition). The conditions noted are these: TR-FRET competition with Fluormone ES2 tracer, 4 hours at room temperature; single experiment or average of two or more. Background: TR-FRET usually uses a lanthanide donor and a delayed reading to cut background.
A word on the IC50: it is the concentration that gives 50% inhibition. For `Cc1ncsc1-c1ccc([C@H](C)NC(=O)[C@@H]2C[C@@H](O)CN2C(=O)[C@@H](NC(=O)COCCOCCCCOc2cc(F)c([C@@H]3c4[nH]c5ccccc5c4C[C@@H](C)N3CC(C)(C)F)c(F)c2)C(C)(C)C)cc1` [Example 153, (2S,4R)-1-((S)-2-(2-(2-(4-(3,5-Difluoro-4-((1R,3R)-2-(2-fluoro-2-methylpropyl)-3-methyl-2,3,4,9-tetrahydro-1H-pyrido[3,4-b]indol-1-yl)phenoxy)butoxy)ethoxy)acetamido)-3,3-dimethylbutanoyl)-4-hydroxy-N—((S)-1-(4-(4-methylthiazol-5-yl)phenyl)ethyl)pyrrolidine-2-carboxamide], the IC50 was determined as 0.3 nM.
As to `Cc1ncsc1-c1ccc([C@H](C)NC(=O)[C@@H]2C[C@@H](O)CN2C(=O)[C@@H](NC(=O)COCCCCOCCCOc2cc(F)c([C@@H]3c4[nH]c5ccccc5c4C[C@@H](C)N3CC(C)(C)F)c(F)c2)C(C)(C)C)cc1` [Example 154, (2S,4R)-1-((S)-2-(2-(4-(3-(3,5-Difluoro-4-((1R,3R)-2-(2-fluoro-2-methylpropyl)-3-methyl-2,3,4,9-tetrahydro-1H-pyrido[3,4-b]indol-1-yl)phenoxy)propoxy)butoxy)acetamido)-3,3-dimethylbutanoyl)-4-hydroxy-N—((S)-1-(4-(4-methylthiazol-5-yl)phenyl)ethyl)pyrrolidine-2-carboxamide], the IC50 worked out at 0.4 nM.
For `Cc1ncsc1-c1ccc(CNC(=O)[C@@H]2C[C@@H](O)CN2C(=O)[C@@H](NC(=O)COCCCC2CN(CCOc3cc(F)c([C@@H]4c5[nH]c6ccccc6c5C[C@@H](C)N4CC(C)(C)F)c(F)c3)C2)C(C)(C)C)cc1` [Example 47, (2S,4R)-1-((S)-2-(2-(3-(1-(2-(3,5-difluoro-4-((1R,3R)-2-(2-fluoro-2-methylpropyl)-3-methyl-2,3,4,9-tetrahydro-1H-pyrido[3,4-b]indol-1-yl)phenoxy)ethyl)azetidin-3-yl)propoxy)acetamido)-3,3-dimethylbutanoyl)-4-hydroxy-N-(4-(4-methylthiazol-5-yl)benzyl)pyrrolidine-2-carboxamide], the IC50 is 0.7 nM.
The value for `Cc1ncsc1-c1ccc(CNC(=O)[C@@H]2C[C@@H](O)CN2C(=O)[C@@H](NC(=O)COCCOCCOCCOCCOc2cc(F)c([C@@H]3c4[nH]c5ccccc5c4C[C@@H](C)N3CC(C)(C)F)c(F)c2)C(C)(C)C)cc1` [Example 37, (2S,4R)-1-((S)-2-(tert-Butyl)-17-(3,5-difluoro-4-((1R,3R)-2-(2-fluoro-2-methylpropyl)-3-methyl-2,3,4,9-tetrahydro-1H-pyrido[3,4-b]indol-1-yl)phenoxy)-4-oxo-6,9,12,15-tetraoxa-3-azaheptadecanoyl)-4-hydroxy-N-(4-(4-methylthiazol-5-yl)benzyl)pyrrolidine-2-carboxamide] was 6.4 nM; that for `Cc1ncsc1-c1ccc([C@@H](CN(C)C)NC(=O)[C@@H]2C[C@@H](O)CN2C(=O)[C@@H](NC(=O)COCCOCCOCCOc2cc(F)c([C@@H]3c4[nH]c5ccccc5c4C[C@@H](C)N3CC(C)(C)F)c(F)c2)C(C)(C)C)cc1` [Example 107, (2S,4R)-1-[(2S)-2-[[2-[2-[2-[2-[3,5-Difluoro-4-[(1R,3R)-2-(2-fluoro-2-methyl-propyl)-3-methyl-1,3,4,9-tetrahydropyrido[3,4-b]indol-1-yl]phenoxy]ethoxy]ethoxy]ethoxy]acetyl]amino]-3,3-dimethyl-butanoyl]-N-[(1S)-2-(dimethylamino)-1-[4-(4-methylthiazol-5-yl)phenyl]ethyl]-4-hydroxy-pyrrolidine-2-carboxamide] was 4 nM.
Regarding `Cc1ncsc1-c1ccc(CNC(=O)[C@@H]2C[C@@H](O)CN2C(=O)[C@@H](NC(=O)COCC(F)(F)COCCCOc2cc(F)c([C@@H]3c4[nH]c5ccccc5c4C[C@@H](C)N3CC(C)(C)F)c(F)c2)C(C)(C)C)cc1` [Example 125, (2S,4R)-1-((S)-2-(2-(3-(3-(3,5-Difluoro-4-((1R,3R)-2-(2-fluoro-2-methylpropyl)-3-methyl-2,3,4,9-tetrahydro-1H-pyrido[3,4-b]indol-1-yl)phenoxy)propoxy)-2,2-difluoropropoxy)acetamido)-3,3-dimethylbutanoyl)-4-hydroxy-N-(4-(4-methylthiazol-5-yl)benzyl)pyrrolidine-2-carboxamide], the IC50 was 1 nM.
Take `Cc1ncsc1-c1ccc(CNC(=O)[C@@H]2C[C@@H](O)CN2C(=O)[C@@H](NC(=O)CCCOc2cccc(COc3cc(F)c([C@@H]4c5[nH]c6ccccc6c5C[C@@H](C)N4CC(C)(C)F)c(F)c3)n2)C(C)(C)C)cc1` [Example 162, (2S,4R)-1-((S)-2-(4-((6-((3,5-Difluoro-4-((1R,3R)-2-(2-fluoro-2-methylpropyl)-3-methyl-2,3,4,9-tetrahydro-1H-pyrido[3,4-b]indol-1-yl)phenoxy)methyl)pyridin-2-yl)oxy)butanamido)-3,3-dimethylbutanoyl)-4-hydroxy-N-(4-(4-methylthiazol-5-yl)benzyl)pyrrolidine-2-carboxamide]: the IC50 worked out at 1.1 nM.
In the case of `Cc1ncsc1-c1ccc(CNC(=O)[C@@H]2C[C@@H](O)CN2C(=O)[C@@H](NC(=O)COCCCCCOc2ccc([C@@H]3c4[nH]c5ccccc5c4C[C@@H](C)N3CC(F)F)nc2)C(C)(C)C)cc1` [Example 17, (2S,4R)-1-((S)-2-(2-((5-((6-((1S,3R)-2-(2,2-Difluoroethyl)-3-methyl-2,3,4,9-tetrahydro-1H-pyrido[3,4-b]indol-1-yl)pyridin-3-yl)oxy)pentyl)oxy)acetamido)-3,3-dimethylbutanoyl)-4-hydroxy-N-(4-(4-methylthiazol-5-yl)benzyl)pyrrolidine-2-carboxamide], the 50% inhibitory concentration (IC50) turned out to be 5.5 nM.
On to `Cc1ncsc1-c1ccc(CNC(=O)[C@@H]2C[C@@H](OC(=O)[C@@H]3CCCN3)CN2C(=O)[C@@H](NC(=O)CCCCCCCCCCOc2cc(F)c([C@@H]3c4[nH]c5ccccc5c4C[C@@H](C)N3CC(C)(C)F)c(F)c2)C(C)(C)C)cc1` [Example 33, (3R,5S)-1-((S)-2-(11-(3,5-Difluoro-4-((1R,3R)-2-(2-fluoro-2-methylpropyl)-3-methyl-2,3,4,9-tetrahydro-1H-pyrido[3,4-b]indol-1-yl)phenoxy)undecanamido)-3,3-dimethylbutanoyl)-5-((4-(4-methylthiazol-5-yl)benzyl)carbamoyl)pyrrolidin-3-yl L-prolinate], for which the IC50 came to 8.9 nM.
On to `Cc1ncsc1-c1ccc(CNC(=O)[C@@H]2C[C@@H](O)CN2C(=O)[C@@H](NC(=O)COCCOCCOCCOCCOCCOCC(=O)Nc2ccc([C@@H]3c4[nH]c5ccccc5c4C[C@@H](C)N3CC(C)(C)F)cc2)C(C)(C)C)cc1` [Example 54, N^1-(4-((1R,3R)-2-(2-fluoro-2-methylpropyl)-3-methyl-2,3,4,9-tetrahydro-1H-pyrido[3,4-b]indol-1-yl)phenyl)-N^18—((S)-1-((2S,4R)-4-hydroxy-2-(4-(4-methylthiazol-5-yl)benzylcarbamoyl)pyrrolidin-1-yl)-3,3-dimethyl-1-oxobutan-2-yl)-2,5,8,11,14,17-hexaoxaoctadecane-1,18-dicarboxamide, Trifluoroacetic Acid], for which the 50% inhibitory concentration (IC50) came out at 16 nM.
With `Cc1ncsc1-c1ccc(CNC(=O)[C@@H]2C[C@@H](O)CN2C(=O)[C@@H](NC(=O)CNCCC(F)(F)CCOc2cc(F)c([C@@H]3c4[nH]c5ccccc5c4C[C@@H](C)N3CC(C)(C)F)c(F)c2)C(C)(C)C)cc1` [Example 131, (2S,4R)-1-((S)-2-(2-((5-(3,5-Difluoro-4-((1R,3R)-2-(2-fluoro-2-methylpropyl)-3-methyl-2,3,4,9-tetrahydro-1H-pyrido[3,4-b]indol-1-yl)phenoxy)-3,3-difluoropentyl)amino)acetamido)-3,3-dimethylbutanoyl)-4-hydroxy-N-(4-(4-methylthiazol-5-yl)benzyl)pyrrolidine-2-carboxamide], the IC50 stood at 1.6 nM.
As for `Cc1ncsc1-c1ccc(CNC(=O)[C@@H]2C[C@@H](O)CN2C(=O)[C@@H](NC(=O)COCc2ccnc(COc3cc(F)c([C@@H]4c5[nH]c6ccccc6c5C[C@@H](C)N4CC(C)(C)F)c(F)c3)c2)C(C)(C)C)cc1` [Example 134, (2S,4R)-1-((S)-2-(2-((2-((3,5-Difluoro-4-((1R,3R)-2-(2-fluoro-2-methylpropyl)-3-methyl-2,3,4,9-tetrahydro-1H-pyrido[3,4-b]indol-1-yl)phenoxy)methyl)pyridin-4-yl)methoxy)acetamido)-3,3-dimethylbutanoyl)-4-hydroxy-N-(4-(4-methylthiazol-5-yl)benzyl)pyrrolidine-2-carboxamide], the IC50 was determined as 0.6 nM.
As to `Cc1ncsc1-c1ccc(CNC(=O)[C@@H]2C[C@@H](O)CN2C(=O)[C@@H](NC(=O)COCCOCCCCCOc2cc(F)c([C@@H]3c4[nH]c5ccccc5c4C[C@@H](C)N3CC(F)(F)F)c(F)c2)C(C)(C)C)cc1` [Example 139, (2S,4R)-1-((S)-2-(2-(2-((5-(3,5-Difluoro-4-((1R,3R)-3-methyl-2-(2,2,2-trifluoroethyl)-2,3,4,9-tetrahydro-1H-pyrido[3,4-b]indol-1-yl)phenoxy)pentyl)oxy)ethoxy)acetamido)-3,3-dimethylbutanoyl)-4-hydroxy-N-(4-(4-methylthiazol-5-yl)benzyl)pyrrolidine-2-carboxamide], the IC50 was 0.5 nM.
`Cc1ncsc1-c1ccc(CNC(=O)[C@@H]2C[C@@H](O)CN2C(=O)[C@@H](NC(=O)COCCCCCCOc2cc(F)c([C@@H]3c4[nH]c5ccccc5c4C[C@@H](C)N3CC(C)(C)F)c(F)c2)C(C)(C)C)cc1` [Example 51, (2S,4R)-1-((S)-2-(2-((6-(3,5-difluoro-4-((1R,3R)-2-(2-fluoro-2-methylpropyl)-3-methyl-2,3,4,9-tetrahydro-1H-pyrido[3,4-b]indol-1-yl)phenoxy)hexyl)oxy)acetamido)-3,3-dimethylbutanoyl)-4-hydroxy-N-(4-(4-methylthiazol-5-yl)benzyl)pyrrolidine-2-carboxamide]: the IC50 came out at 2 nM.
